Data on one molecule can be found in US8557875B2, “Gene transfer agent composition containing polyamidoamine dendron” (Public University Corporation Osaka Prefecture University, priority 2009, dated 2013).

SMILES strings stand for the structures.

In data set [1] the test system is COS-7. Description: Cytotoxic evaluation on gene transfer (Example 5). It is filed as cell-based. The note with it: compared with Lipofectamine LTX and FuGENE HD.
Data set [2] has as its system COS-7. As to the kind of experiment: Gene transfer (GFP expression, luciferase activity) versus commercial agents (Example 5). It is filed as cell-based. Conditions: COS-7 adherent cells; compared with Lipofectamine LTX and FuGENE HD. The method, then:
pEGFP-C1 expressing a green fluorescent protein was used as a gene transfer plasmid; and adherent cells COS-7 and Hela-S3, and non-adherent cells K562, which were established cell lines, were used as target cells. Lipoplexes were individually prepared using DL-U2. Then, gene transfer was performed.
(COS7 cells: 2.0×10^4 cells/well·DMEM+10% FBS (Pe/St) 500 μl)
(i) A 20 mM Tris-HCl (pH 7.4) buffer was dispensed into three tubes at 35.5 μl (for NP ratio=6) for each of two tubes, and 23 μl (for NP ratio=8) for the remaining tube.
(ii) 1.0 μg of plasmid DNA (pCAG-GFP) was added to each of the three tubes prepared in step (i) at 2 μl (1.0 μg), and the contents were stirred.
(iii) A DL-U2 liposome solution was added to the three tubes prepared in step (ii) at 37.5 μl (N/P ratio=6) for each of two tubes, and 50 μl (N/P ratio=8) for the remaining tube.
(iv) 25 μl of an Opti-MEM (registered trademark) I Reduced-Serum Medium was further added, and the whole was thoroughly mixed and allowed to stand at room temperature for 5 minutes.
(v) 100 μl of the DL-plasmid DNA complex solution (N/P ratio=6) was added and mixed with the COS7 cells. […]
(vii) 48 hours later, luciferase activity was measured according to the protocol of the luciferase assay system (Promega, E1501) (relative values based on the activity of LTX defined as 1 were graphed).

In data set [3] the test system is HeLa-S3. Description: Cytotoxic evaluation on gene transfer (Example 5). It is filed as cell-based. The note with it: compared with Lipofectamine LTX and FuGENE HD.
Data set [4] has as its system NHDF-ad cells. As to the kind of experiment: Toxicity evaluation, WST-8 kit (Example 6). It is filed as cell-based, human. Conditions: WST-8, 48 hours. The method, then:
(NHDF-ad cells: 3.5×10^3 cells/well·DMEM+10% FBS (Pe/St) 70 μl)
(i) A 20 mM Tris-HCl (pH 7.4) buffer was dispensed into two tubes at, individually, 54.25 μl (for DL-G1) and 35.5 μl (for DL-U2).
(ii) 1.0 μg of plasmid DNA (pEGFP-luc+) was added to each of the two tubes prepared in step (i) at 2 μl (1.0 μg), and the contents were stirred.
(iii) To the prepared plasmid DNA solutions was added 37.5 μl of a DL-U2 liposome solution (N/P ratio=6), and the whole was thoroughly mixed using a vortex and incubated at room temperature for 30 minutes.
(iv) 25 μl of an Opti-MEM(R) I Reduced-Serum Medium was further added, and the whole was thoroughly mixed and allowed to stand at room temperature for 5 minutes.
(v) 2.8 and 7.0 μl per well of the DL-plasmid DNA complex solutions was individually added to three wells, and the contents were mixed (the addition amount was one-seventh the addition amount in the luciferase activity measurement).
(vi) The cells were incubated at 37° C. in 5% CO2 for 4 hours, and the growth medium was replaced.
(vii) 48 hours later, toxicity evaluation was performed according to the protocol of a WST-8 kit (Kishida Chemical Co., Ltd.) (a well to which no lipoplex solution was added was defined as 100%). […]

Data set [5] concerns NHDF-ad cells. Description: GFP expression after gene transfer with lipoplexes (Example 4). It is filed as cell-based, human. The note with it: GFP-expression plasmid. The method, then: A solvent was removed from each of chloroform solutions (1 mg/ml) of polyamidoamine dendrons (DL-G1 and DL-G1-U2) using a rotary evaporator to form 111.5 μg of lipid thin films. The thin films were dried in vacuo for 2 hours. Then, […] of phosphate buffered saline (PBS) were added. The mixtures were further sonicated for 2 minutes using a bath-type ultrasonicator to give 160 μl of lipid dispersion liquids. In addition, a solution (20 μg/ml, 160 μl) prepared by dissolving plasmid DNA in a 20 mM Tris-HCl buffer was added to each of the lipid dispersion liquids so as to obtain different N/P ratios. Then, the liquids were incubated at room temperature for 30 minutes to obtain lipoplexes.
pEGFP-C1 expressing a green fluorescent protein was used as a gene transfer plasmid, and NHDF-ad cells were used as target cells. Lipoplexes were prepared using, individually, DL-U2 and DL-G1. Then, gene transfer was performed.
NHDF-ad cells were seeded in a 24-well plate.
(NHDF-ad cells: 2.5×10^4 cells/well·DMEM+10% FBS (Pe/St) 500 μl)
(i) A 20 mM Tris-HCl (pH 7.4) buffer was dispensed into two tubes at, individually, 56.3 μl (for NP ratio=3) and 37.5 μl (for NP ratio=6).
(ii) 1.0 μg of plasmid DNA (pCAG-GFP) was added to each of the two tubes prepared in step (i) at 2 μl (1.0 μg), and the contents were stirred. […]

Take `CCCCCCCC/C=C\CCCCCCCCN(CCCCCCCC/C=C\CCCCCCCC)CCC(=O)NCCN(CCC(=O)NCCN)CCC(=O)NCCN` (racemic) [DL-G1-U2]: the cytotoxicity result in data set [1] and in data set [3] was “lower cytotoxicity” in each case. Further, in data set [2], the gene transfer activity result is given as “excellent gene transfer activity”. The “cytotoxicity on GFP gene transfer” value in data set [4] is reported as “lower than those of most of the commercially available transfer agents”. Also, the “gene transfer into NHDF-ad cells” value in data set [5] is given as “allowed the gene to be transferred”.
